According to a melting point compilation (Tetko et al.):

| Compound | melting point |
| --- | --- |
| CC(=O)NNC(C)=O | 140 °C |
| NC(=S)c1ccc(C(F)(F)F)cc1 | 136 to 137 °C |
| CC1(C)C(C=C(Cl)Cl)C1C(=O)OCc1cccc(Oc2ccccc2)c1 (configuration not stated) | 34.5 °C |
| C=CCCCCCCCCC=O | 7 °C |
| Cc1c(C(=O)CCl)sc2ccc(Cl)cc12 | 158 to 160 °C |
| O=[N+]([O-])/C(Br)=C/c1cccc(/C=C(\Br)[N+](=O)[O-])c1 | 153 °C |
| CC(C)(C)c1cc(O)c(O)c(O)c1 | 135 °C |
| O=[N+]([O-])c1coc2ccc(O)cc12 | 164 to 165 °C |
| COc1ccc(OC)c(C=CC(=O)O)c1 | 147 to 150 °C |
| BrCc1cccc2nonc12 | 77 to 79 °C |
| C=CC(=O)OCCCCCCCC(C)C | -100 °C |
| O=C1CCCC2C3CCCN4CCCC(CN12)C34 (configuration not stated) | 76 °C |
| O=C(Cl)c1cc(-c2ccccc2)c(C(F)(F)F)s1 | 48 to 51 °C |
| CCCCCCCCCCCCCCOCCOCCOCCOCCOCCOCCO | 32.5 °C |
| Cc1cc2ccccc2oc1=O | 91 °C |
| O=C1c2ccccc2C(=O)N1c1n[nH]c2ccccc12 | 239 to 241 °C |
| O=C(O)C(F)(F)C(F)(F)C(F)(F)C(=O)O | 94.5 °C |
| COc1cc(C=O)cc(OC)c1OC | 75 °C |
| CC1(C(=O)O)CCC(C=Cc2ccccc2)C1(C)C (configuration not stated) | 124 °C |
| O=C(O)C1(C(=O)Nc2ccc(Cl)cc2Cl)CC1 | 195 °C |
| CCCCCC(C=O)=Cc1ccccc1 | 80 °C |
| Cc1c(CC(=O)O)sc2ccc(Cl)cc12 | 177 to 178 °C |
| Cc1c(C)c(C)c2c(c1C)CC2(C)O (configuration not stated) | 90 °C |
| O=C(O)c1cc(F)ccc1C(F)(F)F | 82 °C |
| COc1ccc(-c2csc(/C(C#N)=N\Nc3cc(C)ccc3C)n2)cc1 | 155 °C |

| Compound | melting point |
| --- | --- |
| O=C(O)C=CC(=O)Nc1cccc(C(F)(F)F)c1 | 161 to 164 °C |
| O=C(O)c1ccc(Oc2ccccn2)cc1 | 174 to 175 °C |
| Cc1cc(C(=O)O)c(C(F)(F)F)o1 | 124 to 126 °C |
| Cc1onc(-c2ccc(F)cc2)c1C(=O)O | 197 to 200 °C |
| COC(=O)c1ccccc1OC1OC(COC2OCC(O)C(O)C2O)C(O)C(O)C1O (configuration not stated) | 180 °C |
| NC(=O)C1CC1 | 124 °C |
| S=c1nnc(-c2ccccc2)c(Nc2ccc(Br)cc2)[nH]1 | 359 °C |
| O=C(Oc1cccc(N=Nc2cccc(OC(=O)c3ccccc3)c2)c1)c1ccccc1 | 180 °C |
| C=C(C)C(C)=O | -54 °C |
| Cc1ccc(NN=C2SC(=N)NC2=O)cc1 | 265 °C |
| C=C1OC(=O)OC1(C)C | 26 to 30 °C |
| CN(C)c1ccc2cc3ccc(N(C)C)cc3nc2c1 | 165 °C |
| CC(=O)Oc1cccc([N+](=O)[O-])c1 | 54 °C |
| O=C(O)C=Cc1ccc(Sc2ccccn2)c([N+](=O)[O-])c1 | 177 to 178 °C |
| CC(=O)c1csc([N+](=O)[O-])c1 | 59 to 61 °C |
| CC(=O)OC(C)OC(C)=O | 18.9 °C |
| O=C(O)CCCCC=C(c1ccccc1)c1cccnc1 | 114 °C |
| CNc1cccc2ccccc12 | 174 °C |
| N#CC(C#N)=C(CC=O)c1ccc(Cl)cc1 | 100 °C |
| CCC1CCc2ccccc2C1 (configuration not stated) | -42.8 °C |
| CCC1(CC)OC(=O)C2CCC1(C)OC2(C)C (configuration not stated) | 90 °C |
| O=C(O)c1cc2ccccc2c2ccccc12 | 253 °C |
| O=C1OC(CO)C(O)C(O)C1O (configuration not stated) | 151 to 155 °C |
| ON=Cc1ccc2c(Br)cccc2c1 | 178 °C |
| NCc1ccc(Cl)nc1 | 30 °C |

| Compound | melting point |
| --- | --- |
| OCc1cccc2c1OCCO2 | 54 to 55 °C |
| O=[N+]([O-])C=Cc1ccc2c(c1)OCO2 | 159 to 163 °C |
| Cc1cccc(C(O)c2ccccc2)c1 (configuration not stated) | 53 °C |
| c1ccc(C2c3ccccc3-c3ccccc32)cc1 | 147 °C |
| BrCc1cccc2cccnc12 | 81 to 82 °C |
| C(=C1c2ccccc2C2C1OC1/C(=C\c3ccccc3)c3ccccc3C12)c1ccccc1 (configuration not stated) | 214 to 215 °C |
| OCCc1ccccc1 | -27 °C |
| Nc1ccc(C(=O)Oc2ccccc2)c(O)c1 | 153 °C |
| CCCCCC(N)P(=O)(O)O (configuration not stated) | 265 to 268 °C |
| OCc1cc2c(cc1Cl)OCO2 | 70 °C |
| CC(C1CC1)C(O)(Cn1cncn1)c1ccc(Cl)cc1 (configuration not stated) | 108 °C |
| COC(=O)c1cc(OCC(F)(F)F)ccc1OCC(F)(F)F | 40 to 41 °C |
| Clc1cc2oc3cc(Cl)c(Cl)cc3c2cc1Cl | 227 °C |
| NC(=O)NN=Cc1cccc2c(Br)cccc12 | 257 to 259 °C |
| CC(=O)C(=Nc1ccccc1)c1cc(C(=Nc2ccccc2)C(C)=O)c([N+](=O)[O-])cc1[N+](=O)[O-] | 174 to 175 °C |
| N=C(N)N(c1ccccc1)c1ccccc1 | 150 °C |
| C1CN2CCN3CCN1C23 | -14.7 °C |
| Cc1cccc2c1[nH]c(=O)c1cc(NC(=O)c3ccccc3)c(=O)oc12 | > 300 °C |
| CC1=C(CCC(=O)O)c2cc3nc(cc4[nH]c(cc5[nH]c(cc1n2)c(C)c5C(C)O)c(C)c4C(C)O)C(C)=C3CCC(=O)O (configuration not stated) | 172 °C |
| COP(=S)(OC)Oc1c(Cl)cc(C)cc1Cl | 79 °C |
| O=C(OCc1ccccc1)c1ccccc1O | 19 °C |
| CCOC(=O)c1ccc(NC(=O)C(C(F)(F)F)C(F)(F)F)cc1 | 166 °C |
| N#CC1(OC(=O)c2ccccc2)Cc2ccccc21 (configuration not stated) | 112 °C |
| O=[N+]([O-])c1ccc(Br)c2cccc(C=Nc3ccccc3)c12 | 232 °C |

The remaining lines, values ahead:

| melting point | Compound |
| --- | --- |
| 127 to 129 °C | CCOC(=O)NC(=S)Nc1cccc(C)n1 |
| 260 °C | Nc1nc(F)nc2c1ncn2C1OC(CO)C(O)C1O (configuration not stated) |
| 127 to 128 °C | Cc1nc(-c2ccc(C=O)s2)cs1 |
| 222 to 224 °C | Cc1n[nH]c2c(=O)n(-c3ccccn3)c(C)nc12 |
| 360 °C | Cc1c(C(=O)O)sc2sc(C(=O)O)c(C)c12 |
| 80 °C | COc1cc(C)c(C(O)C#N)cc1OC (configuration not stated) |
| 158 to 160 °C | O=c1c(Cl)c(Cl)cnn1Cc1c(Cl)cccc1Cl |
| 260 to 262 °C | CC1=C(C(N)=O)C(c2ccccc2)NC(=O)N1 (configuration not stated) |
| 119 °C | Cc1ccc(C(C)(C)C(=O)ON)cc1 |
| 37 °C | O=Cc1c(F)cccc1Cl |
| 163 °C | O=C(O)CCC(=O)c1ccc(C2CCCCC2)c(Cl)c1 |
| 15.6 °C | CC(C)(C1CCCCC1)C1CCCCC1 |
| 206 to 207 °C | COc1ccc(CCN2CCc3c([nH]c4ccccc34)C2=O)cc1OC |
| 222 to 225 °C | O=C(O)c1cnccn1 |
| 133 to 135 °C | Cc1c(-c2ccccc2)sc2ncnc(Cl)c12 |
| 104 to 105 °C | COc1cccc2cc(C(=O)C3CC(C)(c4ccccc4)C3)oc12 (configuration not stated) |
| 261 °C | O=C(O)c1cncc(-c2cccs2)c1 |
| 149 °C | O=C1/C(=C\c2ccc(Cl)cc2)SC(=S)N1CN1CCOCC1 |
| 190 to 195 °C | COc1ccc(-c2noc(C)c2C(=O)O)cc1 |
| 341 °C | O=C1c2ccccc2C(=O)c2c1ccc([N+](=O)[O-])c2[N+](=O)[O-] |
| 221 °C | Cc1cc(O)c(C(C)C)cc1C1(c2cc(C(C)C)c(O)cc2C)OS(=O)(=O)c2ccccc21 |
| 64.5 °C | CCOC(=O)N1c2ccccc2C=CC1OCC (configuration not stated) |
| 97 °C | CS(=O)(=O)c1ccc(Cl)cc1 |
| 172 °C | O=C(O)c1nc(Cl)c(Cl)c(Cl)c1Cl |
| 57 °C | COC(=O)c1cncn1C |
| 153 °C | CC(C)OC(=O)NC(C(=O)NC(C)c1nc2ccc(F)cc2s1)C(C)C (configuration not stated) |
| 134 °C | CCCCN(CCCC)C(C(N)=O)c1ccc(OC)cc1 (configuration not stated) |

| melting point | Compound |
| --- | --- |
| 283 to 284 °C | O=C(O)c1csc(-c2cccnc2)n1 |
| 158 °C | OCCN(CCO)c1nc(N2CCCCC2)c2nc(N(CCO)CCO)ncc2n1 |
| 125 to 127 °C | O=C(O)c1cc(F)nc(F)c1F |
| 193 °C | Cc1cc(C(=O)O)cc(Cl)n1 |
| 274 to 276 °C | CC(=O)Nc1ccc(-c2cc(C(=O)O)c3ccccc3n2)cc1 |
| 219 °C | O=C1CCCC2=C1[C@@H](c1cccc([N+](=O)[O-])c1)[C@@H]1C(=O)CCC[C@@]1(O)O2 |
| 256 to 257 °C | O=C(O)c1ccc(N2CCOCC2)nc1 |
| 108 °C | CC(=O)Oc1ccccc1C(=O)OCC(=O)N(C(C)C)C(C)C |
| 169 to 172 °C | CCOC(=O)c1c(NC(=S)Nc2ccc(Cl)cc2)sc2c1CCN(Cc1ccccc1)C2 |
| 86 °C | C[Si](C)(C)Nc1ncnc2c1ncn2[Si](C)(C)C |
| 92 °C | CCOC(=O)c1c(-c2ccccc2)csc1N |
| 89 °C | CC1=C(O)C(=O)CC(C)(C)C1 |
| 50 °C | NCc1ccc(N2CCOCC2)cc1 |
| 324 °C | Nc1cc(C(=O)O)ccc1C(=O)O |
| 44 to 46 °C | CN1CCCN(c2ccc(C=O)cc2)CC1 |
| 194 °C | O=C(O)CCC(=O)Nc1ccc(S(=O)(=O)Nc2nccs2)cc1 |
| 70 to 72 °C | COC(=O)c1ccc(N2CCCCC2)nc1 |
| 38 to 42 °C | O=[N+]([O-])c1cc(Cl)cnc1Cl |
| 55 to 61 °C | O=C(Cl)c1cccc2c1OCC2 |
| 222 °C | COC1=CC(C)C2CC3OC(=O)CC4C(C)=C(OC)C(=O)C(C2(C)C1=O)C34C (configuration not stated) |
| 293 to 294 °C | O=C(O)c1ccc2ncccc2c1 |
| 109 °C | COc1ccc(C(=O)O)c(OC)c1 |
| 93 °C | Brc1cnc2ccccn12 |
| 155 to 158 °C | CC(C)S(=O)(=O)c1cnc(N2CCCCC2)nc1N |
| 92 °C | CCOC(=O)C(C)Oc1ccc(Oc2cnc3cc(Cl)ccc3n2)cc1 (configuration not stated) |
| 57 to 61 °C | CCOC(=O)c1ccc(Cl)c([N+](=O)[O-])c1 |
